From ChEMBL document CHEMBL1143206, “Carbonic anhydrase inhibitors: copper(II) complexes of polyamino-polycarboxylamido aromatic/heterocyclic sulfonamides are very potent inhibitors of the tumor-associated isoforms IX and XII” (Bioorg Med Chem Lett, 2008)

These compounds were tested against Carbonic anhydrase 9 (Homo sapiens, UniProt Q16790).
Description: Inhibition of human recombinant CA9 by CO2 hydration stopped flow assay

SMILES	Ki [nM]
NS(=O)(=O)c1ccc(CCNC(=O)CN(CCN(CC(=O)O)CC(=O)NCCc2ccc(S(N)(=O)=O)cc2)CC(=O)O)cc1	8.2
NS(=O)(=O)c1nnc(NC(=O)CN(CCN(CC(=O)O)CC(=O)Nc2nnc(S(N)(=O)=O)s2)CC(=O)O)s1	8.5
O=C1NS(=O)(=O)c2ccccc21 [SACCHARIN]	103
NS(=O)(=O)c1ccc(NC(=O)CN(CCN(CCN(CC(=O)O)CC(=O)Nc2ccc(S(N)(=O)=O)cc2)CC(=O)O)CC(=O)O)cc1	8.4
NS(=O)(=O)c1cccc(NC(=O)CN(CCN(CCN(CC(=O)O)CC(=O)Nc2cccc(S(N)(=O)=O)c2)CC(=O)O)CC(=O)O)c1	9.6
NS(=O)(=O)c1ccc(CNC(=O)CN(CCN(CCN(CC(=O)O)CC(=O)NCc2ccc(S(N)(=O)=O)cc2)CC(=O)O)CC(=O)O)cc1	8.7
NS(=O)(=O)c1nnc(NC(=O)CN(CCN(CCN(CC(=O)O)CC(=O)Nc2nnc(S(N)(=O)=O)s2)CC(=O)O)CC(=O)O)s1	8.3

The next compounds have a lower Ki than those just listed; values first:

Ki [nM]	SMILES
7.9	NS(=O)(=O)c1cccc(NC(=O)CN(CCN(CC(=O)O)CC(=O)Nc2cccc(S(N)(=O)=O)c2)CC(=O)O)c1
7.8	NS(=O)(=O)c1ccc(NC(=O)CN(CCN(CC(=O)O)CC(=O)Nc2ccc(S(N)(=O)=O)cc2)CC(=O)O)cc1
7.5	NS(=O)(=O)c1ccc(CCNC(=O)CN(CCN(CCN(CC(=O)O)CC(=O)NCCc2ccc(S(N)(=O)=O)cc2)CC(=O)O)CC(=O)O)cc1
7.3	NS(=O)(=O)c1ccc(CNC(=O)CN(CCN(CC(=O)O)CC(=O)NCc2ccc(S(N)(=O)=O)cc2)CC(=O)O)cc1

These compounds were tested against Carbonic anhydrase 12 (Homo sapiens, UniProt O43570).
Sequence of Carbonic anhydrase 12 (O43570 whole entry): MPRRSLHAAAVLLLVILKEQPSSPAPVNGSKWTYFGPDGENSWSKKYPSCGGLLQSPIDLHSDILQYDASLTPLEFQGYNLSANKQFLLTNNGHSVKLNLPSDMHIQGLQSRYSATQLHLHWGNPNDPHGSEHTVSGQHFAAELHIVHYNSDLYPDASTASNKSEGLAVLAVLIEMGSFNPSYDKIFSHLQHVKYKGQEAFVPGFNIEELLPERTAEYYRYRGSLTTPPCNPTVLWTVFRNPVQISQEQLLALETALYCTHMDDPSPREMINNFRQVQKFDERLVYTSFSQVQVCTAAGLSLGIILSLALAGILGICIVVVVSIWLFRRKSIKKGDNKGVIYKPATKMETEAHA
Description: Inhibition of human recombinant CA12 by CO2 hydration stopped flow assay

Ki [nM]	SMILES
633	O=C1NS(=O)(=O)c2ccccc21 [SACCHARIN]
